Consider 4 molecules from patent publication US4076705A, “Dipeptide derivatives and their production” (Shionogi & Co., Ltd., priority 1974, dated 1978).

SMILES strings stand for the structures.

What all share (type): in vivo
Data set [1] concerns DS male mice. Briefly: Anti-pentylenetetrazol activity. The following applies: for Anti-pentylenetetrazol activity, ED50: oral, 60 minutes prior to 125 mg/kg s.c. pentylenetetrazol, complete protection against mortality, observed two hours; for times more potent than diazepam, anti-pentylenetetrazol activity: versus diazepam (Compound No. 5). An excerpt: 1. Anti-pentylenetetrazol activity
The convulsions were disregarded.

Data set [2] deals with DS male mice. The data set can be described thus: Taming activity. Conditions: for Taming activity ED50: given 60 minutes prior, inhibition of fighting responses to 5 Hz square wave pulse, 5 pairs; for times more potent than diazepam, taming activity: versus diazepam (Compound No. 5). The procedure: This test was measured on DS male mice. […] These pairs of mice were selected in the morning and used for drug test in the afternoon. The test compound was administered to both mice of the pairs 60 minutes prior to the experiment. Results were obtained as the mean percentage of inhibition of fighting responses in a group of 5 pairs and shown by ED50 [Tedeschi, et al.: J. Pharmacol Exp. Thev., 125, 28-34 (1959) ].

In data set [3] the test system is DS male mice. The data set can be described thus: Rotarod performance activity. Conditions: fall from rod (five rotations per minute) within less than 2 minutes. The procedure:
3. Rotarod performance activity
This test was measured on DS male mice. The mouse was put on a scraped rod of wood, 3 cm in diameter, turning at the rate of five rotations per minute. The mice that could remain on the rod for three or more minutes in successive trials were selected and placed in a group of 10 mice for each dose. If the mouse fell down from the rod within less than 2 minutes, the test compound was considered to be effective. Results were shown by ED50 [Dunham, et al.: J. Am. Pharm. Assoc., 46, 208 (1959)].
(In general: In the rotarod test animals must keep their balance on a rotating rod.)

The mark [4] stands for this setting: versus chlordiazepoxide (Compound No. 4).

Take `CN(C(=O)CNC(=O)CN)c1ccc(Cl)cc1C(=O)c1ccccc1` [Compound No. 1, 2-benzoyl-4-chloro-N-methyl-N^α -glycyl-glycinanilide]: the “Anti-pentylenetetrazol activity, ED50” value with DS male mice [1] came out at 1.0 mg/kg. Moreover, in the data set on DS male mice [1] (setting [4]), the “times more potent than chlordiazepoxide, anti-pentylenetetrazol activity” value lay in the range of 2 to 3 times. Moreover, the “times more potent than chlordiazepoxide, taming activity” value in the data set on DS male mice [2] (setting [4]) is reported as 2 to 3 times.
Consider `CN(C(=O)CNC(=O)CN)c1ccc(Cl)cc1C(=O)c1ccccc1Cl.O` [Compound No. 2, 2-o-chlorobenzoyl-4-chloro-N-methyl-N^α -glycyl-glycinanilide hydrate], for which, in the data set with DS male mice [1], the “Anti-pentylenetetrazol activity, ED50” value came to 0.58 mg/kg and the “times more potent than diazepam, anti-pentylenetetrazol activity” value was 2 to 4 times. Besides, in the data set on DS male mice [2], the “Taming activity ED50” value worked out at 3.0 mg/kg and the “times more potent than diazepam, taming activity” value is 2 to 4 times.
For the molecule `CN(C(=O)CNC(=O)CN)c1ccc(Cl)cc1C(=O)c1ccccc1F.Cl` [Compound No. 3, 2-o-fluorobenzoyl-4-chloro-N-methyl-N^α -glycyl-glycinanilide hydrochloride], in the data set on DS male mice [1], the “Anti-pentylenetetrazol activity, ED50” value is reported as 0.33 mg/kg and the “times more potent than diazepam, anti-pentylenetetrazol activity” value was 2 to 4 times. In the data set on DS male mice [2], the “Taming activity ED50” value is on record as 1.6 mg/kg and the “times more potent than diazepam, taming activity” value is listed as 2 to 4 times. For the same molecule, the “Rotarod performance ED50” value with DS male mice [3] is on record as 17.0 mg/kg.
As for `CNC1=Nc2ccc(Cl)cc2C(c2ccccc2)=[N+]([O-])C1` [Compound No. 4, Chlordiazepoxide, reference compound], the “Rotarod performance ED50” value with DS male mice [3] worked out at 50.0 mg/kg.
